Assay results as given in patent publication US11578061B2, “Inhibitors of LRRK2 kinase” (Halia Therapeutics, Inc., priority 2021, dated 2023).

molecular target: recombinant human LRRK2 (catalytic domain only [amino acids 970-2527], GST-tagged) (Homo sapiens (Human), UniProt Q5S007); assay: LRRK2 Enzymatic Assay; assay type: biochemical; conditions: LRRKtide substrate, [32P]-ATP
Procedure, shortened: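 GST-tagged catalytic domain (aa 970-2527) at 30 nM with 20 μM LRRKtide in HEPES pH 7.5/MgCl2 buffer, 1% DMSO; compounds (10 μM to 0.5 nM) preincubated 20 min, then [32P]-ATP added for 2 h at room temperature. P81 phosphocellulose capture; activity as % of vehicle, IC50 by curve fit.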

recombinant human LRRK2 (catalytic domain only [amino acids 970-2527], GST-tagged), sequence (Q5S007 970-2527): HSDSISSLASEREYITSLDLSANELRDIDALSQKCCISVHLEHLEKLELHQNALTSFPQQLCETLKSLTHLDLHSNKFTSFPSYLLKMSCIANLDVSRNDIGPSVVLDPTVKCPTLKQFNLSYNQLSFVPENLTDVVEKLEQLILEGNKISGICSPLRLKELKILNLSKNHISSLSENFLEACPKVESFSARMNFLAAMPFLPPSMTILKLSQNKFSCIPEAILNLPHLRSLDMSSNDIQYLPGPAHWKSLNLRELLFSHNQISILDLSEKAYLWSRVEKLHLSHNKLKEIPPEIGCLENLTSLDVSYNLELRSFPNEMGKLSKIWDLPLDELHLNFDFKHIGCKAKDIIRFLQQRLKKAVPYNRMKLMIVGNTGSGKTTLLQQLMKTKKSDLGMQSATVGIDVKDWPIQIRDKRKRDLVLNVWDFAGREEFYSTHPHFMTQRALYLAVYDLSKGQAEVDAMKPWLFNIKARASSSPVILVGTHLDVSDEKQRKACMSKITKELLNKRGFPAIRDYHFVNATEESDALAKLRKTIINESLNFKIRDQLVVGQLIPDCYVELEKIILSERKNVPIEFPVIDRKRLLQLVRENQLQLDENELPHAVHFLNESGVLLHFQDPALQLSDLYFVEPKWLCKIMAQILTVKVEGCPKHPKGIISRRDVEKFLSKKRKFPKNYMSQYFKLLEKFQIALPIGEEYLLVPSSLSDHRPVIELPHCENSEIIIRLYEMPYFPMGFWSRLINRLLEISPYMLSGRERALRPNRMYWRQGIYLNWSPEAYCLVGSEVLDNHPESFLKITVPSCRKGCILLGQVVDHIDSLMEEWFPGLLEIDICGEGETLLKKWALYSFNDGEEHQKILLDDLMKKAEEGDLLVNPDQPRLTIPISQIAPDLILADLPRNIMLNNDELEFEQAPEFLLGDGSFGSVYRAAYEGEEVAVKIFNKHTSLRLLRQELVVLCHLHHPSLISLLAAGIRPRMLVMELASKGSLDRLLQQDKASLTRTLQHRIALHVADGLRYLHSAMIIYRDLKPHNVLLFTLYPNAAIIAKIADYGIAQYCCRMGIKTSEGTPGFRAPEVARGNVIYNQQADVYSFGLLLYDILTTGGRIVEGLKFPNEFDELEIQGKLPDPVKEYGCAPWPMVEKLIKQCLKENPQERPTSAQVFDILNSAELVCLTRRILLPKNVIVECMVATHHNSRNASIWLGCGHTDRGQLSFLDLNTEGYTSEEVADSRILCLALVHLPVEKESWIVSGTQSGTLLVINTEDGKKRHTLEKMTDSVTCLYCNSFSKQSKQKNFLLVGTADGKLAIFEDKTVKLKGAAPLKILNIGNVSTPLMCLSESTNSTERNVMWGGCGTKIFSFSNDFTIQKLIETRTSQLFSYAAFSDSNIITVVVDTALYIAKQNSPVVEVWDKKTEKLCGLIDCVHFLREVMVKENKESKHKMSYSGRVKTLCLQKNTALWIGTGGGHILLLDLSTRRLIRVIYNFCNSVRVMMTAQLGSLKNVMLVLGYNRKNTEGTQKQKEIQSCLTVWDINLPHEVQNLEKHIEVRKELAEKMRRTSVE

SMILES	IC50 [nM]
CN1CCC(COc2nc(Nc3ccc(N4CCOCC4)cc3)ncc2Cl)CC1 [Example 56, 5-chloro-4-((1-methylpiperidin-4-yl)methoxy)-N-(4-morpholinophenyl)py-rimidin-2-amine]	< 50
NC[C@H]1CC[C@H](COc2nc(Nc3ccc(N4CCOCC4)cc3)ncc2Cl)CC1 [Example 14, 4-(((1R,4R)-4-(aminomethyl)cyclohexyl)methoxy)-5-chloro-N-(4-morpholinophenyl) pyrimidin-2-amine]	< 50
Cc1nn(C(C)(C)C#N)cc1Nc1ncc(F)c(OCC2CCNCC2F)n1 (single isomer, unassigned) [Example 171, 2-(4-((5-fluoro-4-((3-fluoropiperidin-4-yl)methoxy)pyrimidin-2-yl)amino)-3-methyl-1H-pyrazol-1-yl)-2-methylpropanenitrile]	200 to 400
CC(=O)N1CCC(COc2nc(Nc3ccc(N4C[C@@H](C)O[C@@H](C)C4)cc3)ncc2F)C(F)C1 (single isomer, unassigned) [Example 175]	200 to 400
Fc1cnc(Nc2ccc(N3C4CCC3COC4)cc2)nc1OCC1CCNCC1(F)F (centres unmarked) [Example 163, N-(4-(3-oxa-8-azabicyclo[3.2.1]octan-8-yl)phenyl)-4-((3,3-difluoropiperidin-4-yl)methoxy)-5-fluoropyrimidin-2-amine]	50 to 200
Cc1nn(C(C)(C)C#N)cc1Nc1ncc(F)c(OCC2CCN(C)CC2)n1 [Example 67, 2-(4-((5-fluoro-4-((1-methylpiperidin-4-yl)methoxy)pyrimidin-2-yl)amino)-3-methyl-1H-pyrazol-1-yl)-2-methylpropanenitrile]	> 400
C[C@@H]1CN(c2ccc(Nc3ncc(F)c(OCC4CCNCC4(F)F)n3)cc2)C[C@H](C)O1 (stereo partly drawn) [Example 30, 4-((3,3-difluoropiperidin-4-yl)methoxy)-N-(4-((2S,6R)-2,6-dimethylmorpholino)phenyl)-5-fluoropyrimidin-2-amine]	< 50
CC(=O)N[C@H]1CC[C@H](COc2nc(Nc3cnn(C(C)(C)C#N)c3)ncc2F)CC1 [Example 186, N-((1R,4R)-4-(((2-((1-(2-cyanopropan-2-yl)-1H-pyrazol-4-yl)amino)-5-fluoropyrimidin-4-yl)oxy)methyl)cyclo-hexyl)acetamide]	< 50
COc1nn(C)cc1Nc1ncc(F)c(OC[C@H]2CC[C@H](O)CC2)n1 [Example 243, (1R,4R)-4-(((5-fluoro-2-((3-methoxy-1-methyl-1H-pyrazol-4-yl)amino)pyrimidin-4-yl)oxy)methyl)cyclohexan-1-ol]	200 to 400
CN[C@H]1CC[C@H](COc2nc(Nc3ccc(N4CCOCC4)cc3)ncc2Cl)CC1 [Example 38, 5-chloro-4-(((1R,4R)-4-(methylamino)cyclo-hexyl)methoxy)-N-(4-morpholinophenyl) pyrimidin-2-amine]	< 50
CC(=O)N[C@H]1CC[C@H](COc2nc(Nc3cn(C(C)(C)C#N)nc3C)ncc2Cl)CC1 [Example 81, N-((1R,4R)-4-(((5-chloro-2-((1-(2-cyanopropan-2-yl)-3-methyl-1H-pyrazol-4-yl)amino)pyrimidin-4-yl)oxy)methyl)cyclo-hexyl)acetamide]	< 50
O=S1(=O)CCC(COc2nc(Nc3ccc(N4CCOCC4)cc3)ncc2F)CC1 [Example 287, 4-(((5-fluoro-2-((4-morpholinophenyl)amino)pyrimidin-4-yl)oxy)methyl)tetrahydro-2H-thiopyran 1,1-dioxide]	> 400
C[C@@H]1CN(c2ccc(Nc3ncc(F)c(OCC4CCC(C#N)CC4)n3)cc2)C[C@H](C)O1 (mixture of isomers) [Example 273, 4-(((2-((4-((2S,6R)-2,6-dimethylmorpholino)phenyl)amino)-5-fluoropyrimidin-4-yl)oxy)methyl)cyclohexane-1-carbonitrile]	< 50
Cc1nn(C(C)(C)C#N)cc1Nc1ncc(F)c(OCC2CCCC(O)CC2)n1 (single isomer, unassigned) [Example 263, 2-(4-((5-fluoro-4-((4-hydroxycycloheptyl)methoxy)pyrimidin-2-yl)amino)-3-methyl-1H-pyrazol-1-yl)-2-methylpropanenitrile]	< 50
C[C@@H]1CN(c2ccc(Nc3ncc(F)c(OCC4CCC(O)(C(F)(F)F)CC4)n3)cc2)C[C@H](C)O1 (stereo partly drawn) [Example 261, 4-(((2-((4-((2S,6R)-2,6-dimethylmorpholino)phenyl)amino)-5-fluoropyrimidin-4-yl)oxy)methyl)-1-(trifluoromethyl)cyclohexan-1-ol]	50 to 200
CC(=O)N[C@H]1CC[C@H](COc2nc(Nc3cnn(C)c3)ncc2F)CC1 [Example 183, N-((1R,4R)-4-(((5-fluoro-2-((1-methyl-1H-pyrazol-4-yl)amino)pyrimidin-4-yl)oxy)methyl)cyclo-hexyl)acetamide]	50 to 200
CC(C)(C#N)n1cc(Nc2ncc(F)c(OC[C@H]3CC[C@H](O)CC3)n2)cn1 [Example 221]	50 to 200
O[C@H]1CC[C@H](COc2nc(Nc3cnn(C4CCOCC4)c3Cl)ncc2F)CC1 [Example 242, (1R,4R)-4-(((2-((5-chloro-1-(tetrahydro-2H-pyran-4-yl)-1H-pyrazol-4-yl)amino)-5-fluoropyrimidin-4-yl)oxy)methyl)cyclohexan-1-ol]	< 50

SMILES	IC50 [nM]
Clc1cnc(Nc2ccc(N3CCOCC3)cc2)nc1OCC1CCOCC1 [Example 148, 5-chloro-N-(4-morpholinophenyl)-4-((tetrahydro-2H-pyran-4-yl)methoxy)pyrimidin-2-amine]	< 50
NC[C@H]1CC[C@H](COc2ccnc(Nc3ccc(N4CCOCC4)cc3)n2)CC1 [Example 12, 4-(((1R,4R)-4-(aminomethyl)cyclohexyl)methoxy)-N-(4-morpholinophenyl) pyrimidin-2-amine]	< 50
Cc1nn(C(C)(C)C#N)cc1Nc1ncc(F)c(OCC2(F)CCNCC2)n1 [Example 25, 2-(4-((5-fluoro-4-((4-fluoropiperidin-4-yl)methoxy)pyrimidin-2-yl)amino)-3-methyl-1H-pyrazol-1-yl)-2-methylpropanenitrile]	< 50
Cc1nn(C(C)(C)C#N)cc1Nc1nccc(OCC2(F)CCN(C)CC2)n1 [Example 60, 2-(4-((4-((4-fluoro-1-methylpiperidin-4-yl)methoxy)pyrimidin-2-yl)amino)-3-methyl-1H-pyrazol-1-yl)-2-methylpropanenitrile]	> 400
N[C@H]1CC[C@@H](COc2ccnc(Nc3ccc(N4CCOCC4)cc3)n2)C1 [Example 15, 4-(((1R,3S)-3-aminocyclopentyl)methoxy)-N-(4-morpholinophenyl) pyrimidin-2-amine]	50 to 200
Cc1c(Nc2ncc(F)c(OC[C@H]3CC[C@H](O)CC3)n2)cnn1C(C)(C)C#N [Example 234, 2-(4-((5-fluoro-4-(((1R,4R)-4-hydroxycyclohexyl)methoxy)pyrimidin-2-yl)amino)-5-methyl-1H-pyrazol-1-yl)-2-methylpropanenitrile]	< 50
COc1nn(C2CC2)cc1Nc1ncc(F)c(OC[C@H]2CC[C@H](NC(C)=O)CC2)n1 [Example 208, N-((1R,4R)-4-(((2-((1-cyclopropyl-3-methoxy-1H-pyrazol-4-yl)amino)-5-fluoropyrimidin-4-yl)oxy)methyl)cyclo-hexyl)acetamide]	< 50
Fc1cnc(Nc2ccc(N3CCOCC3)cc2)nc1OCC1CCNCC1F (centres unmarked) [Example 166, 5-fluoro-4-((3-fluoropiperidin-4-yl)methoxy)-N-(4-morpholinophenyl) pyrimidin-2-amine]	< 50
COC1CCC(COc2nc(Nc3cn(C(C)(C)C#N)nc3C)ncc2Cl)CC1 (centres unmarked) [Example 161, 2-(4-((5-chloro-4-((4-methoxycyclohexyl)methoxy)pyrimidin-2-yl)amino)-3-methyl-1H-pyrazol-1-yl)-2-methylpropanenitrile]	< 50
Cc1nn(C2CC(C#N)C2)cc1Nc1ncc(Cl)c(OCC2(F)CCNCC2)n1 (centres unmarked) [Example 21, 3-(4-((5-chloro-4-((4-fluoropiperidin-4-yl)methoxy)pyrimidin-2-yl)amino)-3-methyl-1H-pyrazol-1-yl)cyclobutane-1-carbonitrile]	< 50
COCCn1cc(Nc2ncc(F)c(OC[C@H]3CC[C@H](O)CC3)n2)cn1 [Example 226, (1R,4R)-4-(((5-fluoro-2-((1-(2-methoxyethyl)-1H-pyrazol-4-yl)amino)pyrimidin-4-yl)oxy)methyl)cyclohexan-1-ol]	50 to 200
COc1cnc(Nc2ccc(N3CCOCC3)cc2)nc1OC[C@H]1CC[C@H](N)CC1 [Example 8, 4-(((1R,4R)-4-aminocyclohexyl)methoxy)-5-methoxy-N-(4-morpholinophenyl) pyrimidin-2-amine]	< 50
N[C@H]1CC[C@H](COc2ccnc(Nc3ccn(CC(F)F)n3)n2)CC1 [Example 5, 4-(((1R,4R)-4-aminocyclohexyl)methoxy)-N-(1-(2,2-difluoroethyl)-1H-pyrazol-3-yl) pyrimidin-2-amine]	50 to 200
CC(=O)N[C@H]1CC[C@H](COc2nc(Nc3cn(C(C)C)nc3Cl)ncc2F)CC1 [Example 202, N-((1R,4R)-4-(((2-((3-chloro-1-isopropyl-1H-pyrazol-4-yl)amino)-5-fluoropyrimidin-4-yl)oxy)methyl)cyclo-hexyl)acetamide]	< 50
OC12CCC(COc3ccnc(Nc4ccc(N5CCOCC5)cc4)n3)(CC1)CC2 [Example 140, 4-(((2-((4-morpholinophenyl)amino)pyrimidin-4-yl)oxy)methyl)bicyclo[2.2.2]octan-1-ol]	> 400
C[C@@H]1CN(c2ccc(Nc3ncc(F)c(OCC4CCC(F)(F)C4)n3)cc2)C[C@H](C)O1 (stereo partly drawn) [Example 271, 4-((3,3-difluorocyclopentyl)methoxy)-N-(4-((2S,6R)-2,6-dimethylmorpholino)phenyl)-5-fluoropyrimidin-2-amine]	50 to 200
CC(=O)N[C@H]1CC[C@H](COc2nc(Nc3cn(C)nc3C)ncc2F)CC1 [Example 194, N-((1R,4R)-4-(((2-((1,3-dimethyl-1H-pyrazol-4-yl)amino)-5-fluoropyrimidin-4-yl)oxy)methyl)cyclo-hexyl)acetamide]	50 to 200
